According to patent publication US9708314B2, “Heterocyclic amide compound” (NISSAN CHEMICAL INDUSTRIES, LTD., priority 2013, dated 2017):

How the values were obtained:
[1] = tested on: Echinochloa crus-galli var. crus-galli; assay: Test Example 3: herbicidal effect by application to foliage (Wagner pot, water depth 0.1-0.5 cm); type: in vivo; details: Nineteenth Table; application herbicide amount 320 g/ha
Method in brief: (§1)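 Foliar spray, 14-day-old plants, emulsion diluted to target g/ha; rated 3 wk post-application, 0–5 scale (0 ≤5%, 5 ≥90% herbicidal ratio). Greenhouse 25–30 °C, alluvial soil.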

Leptochloa chinensis = assay: as above; type: in vivo; details: Nineteenth Table; application herbicide amount 320 g/ha
Method in brief: as §1

Cyperus difformis = assay: as above; type: in vivo; details: Nineteenth Table; application herbicide amount 320 g/ha
Method in brief: as §1

[2] = tested on: directly sowed Oryza sativa; assay: Test Example 3: effect on crop by application to foliage (Wagner pot, water depth 0.1-0.5 cm); type: in vivo; details: Nineteenth Table; application herbicide amount 320 g/ha
Method in brief: as §1

Brassica campestris L. = assay: Test Example 4: effect on crop by application to foliage (diluvial soil, plastic box); type: in vivo; details: application to foliage, application herbicide amount 320 g/ha
Method in brief: (§2)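 Emulsion-formulated compound, diluted to a predetermined g/ha dose, applied by small sprayer to leaves and stems of 14-day-old seedlings grown in sterilized diluvial soil. Effect rated on 0–5 herbicidal-ratio scale three weeks on.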

Glycine max = assay: as above; type: in vivo; details: application to foliage, application herbicide amount 320 g/ha
Method in brief: as §2

[3] = tested on: directly sowed Oryza sativa; assay: as above; type: in vivo; details: application to foliage, application herbicide amount 320 g/ha
Method in brief: as §2

Triticum aestivum = assay: as above; type: in vivo; details: application to foliage, application herbicide amount 320 g/ha
Method in brief: as §2

Zea mays = assay: as above; type: in vivo; details: application to foliage, application herbicide amount 320 g/ha
Method in brief: as §2

[4] = tested on: Beta vulgaris ssp. vulgaris; assay: as above; type: in vivo; details: application to foliage, application herbicide amount 320 g/ha
Method in brief: as §2

Apera spica-venti. = assay: Test Example 4: herbicidal effect by application to foliage (diluvial soil, plastic box); type: in vivo; details: application to foliage, application herbicide amount 320 g/ha
Method in brief: as §2

Stellaria media = assay: as above; type: in vivo; details: application to foliage, application herbicide amount 320 g/ha
Method in brief: as §2

Avena fatua = assay: as above; type: in vivo; details: application to foliage, application herbicide amount 320 g/ha
Method in brief: as §2

[5] = tested on: Echinochloa crus-galli var. crus-galli; assay: as above; type: in vivo; details: application to foliage, application herbicide amount 320 g/ha
Method in brief: as §2

Setaria viridis = assay: as above; type: in vivo; details: application to foliage, application herbicide amount 320 g/ha
Method in brief: as §2

Alopecurus myosuroides = assay: as above; type: in vivo; details: application to foliage, application herbicide amount 320 g/ha
Method in brief: as §2

Galium spurium = assay: as above; type: in vivo; details: application to foliage, application herbicide amount 320 g/ha
Method in brief: as §2

Abutilon theophrasti = assay: as above; type: in vivo; details: application to foliage, application herbicide amount 320 g/ha
Method in brief: as §2

Veronica persica = assay: as above; type: in vivo; details: application to foliage, application herbicide amount 320 g/ha
Method in brief: as §2

Lolium multiflorum Lam. = assay: as above; type: in vivo; details: application to foliage, application herbicide amount 320 g/ha
Method in brief: as §2

Chenopodium album = assay: as above; type: in vivo; details: application to foliage, application herbicide amount 320 g/ha
Method in brief: as §2

Amaranthus retroflexus = assay: as above; type: in vivo; details: application to foliage, application herbicide amount 320 g/ha
Method in brief: as §2

Digitaria ciliaris = assay: as above; type: in vivo; details: application to foliage, application herbicide amount 320 g/ha
Method in brief: as §2

SMILES	melting point	H (Echinochloa crus-galli var. crus-galli) herbicidal ratio grade [1]	D (Leptochloa chinensis) herbicidal ratio grade (Leptochloa chinensis)	E (Cyperus difformis) herbicidal ratio grade (Cyperus difformis)	b (directly sowed Oryza sativa) effect on crop grade [2]	g (Brassica campestris L.) effect on crop (Brassica campestris L.)	c (Glycine max) effect on crop (Glycine max)	d (directly sowed Oryza sativa) effect on crop [3]	e (Triticum aestivum) effect on crop (Triticum aestivum)	b (Zea mays) effect on crop (Zea mays)	f (Beta vulgaris ssp. vulgaris) effect on crop [4]	L (Apera spica-venti.) herbicidal effect (Apera spica-venti.)	P (Stellaria media) herbicidal effect (Stellaria media)	I (Avena fatua) herbicidal effect (Avena fatua)	H (Echinochloa crus-galli var. crus-galli) herbicidal effect [5]	G (Setaria viridis) herbicidal effect (Setaria viridis)	J (Alopecurus myosuroides) herbicidal effect (Alopecurus myosuroides)	Q (Galium spurium) herbicidal effect (Galium spurium)	M (Abutilon theophrasti) herbicidal effect (Abutilon theophrasti)	R (Veronica persica) herbicidal effect (Veronica persica)	further results
CC(C)c1nnc2c(C(=O)Nc3nnnn3C)ccc(Cl)n12 [2-004, 5-Chloro-3-isopropyl-N-(1-methyl-1H-tetrazol-5-yl)-[1,2,4]triazolo[4,3-a]pyridine-8-carboxamide]	189 to 190 °C																				
Cc1nnc(NC(=O)c2ccc(C(F)(F)F)n3c(Cl)nnc23)o1 [1-013, 3-Chloro-N-(5-methyl-1,3,4-oxadiazol-2-yl)-5-(trifluoromethyl)-[1,2,4]triazolo[4,3-a]pyridine-8-carboxamide]	238 to 241 °C	3 (Herbicidal ratio of 40% or more and less than 70%)	4 (Herbicidal ratio of 70% or more and less than 90%)	3 (Herbicidal ratio of 40% or more and less than 70%)	0 (Herbicidal ratio of 5% or less (almost no effect))	0 (Herbicidal ratio of 5% or less (almost no effect))	0 (Herbicidal ratio of 5% or less (almost no effect))	0 (Herbicidal ratio of 5% or less (almost no effect))	1 (Herbicidal ratio of 5% or more and less than 20%)	0 (Herbicidal ratio of 5% or less (almost no effect))	3 (Herbicidal ratio of 40% or more and less than 70%)	0 (Herbicidal ratio of 5% or less (almost no effect))	4 (Herbicidal ratio of 70% or more and less than 90%)	0 (Herbicidal ratio of 5% or less (almost no effect))	4 (Herbicidal ratio of 70% or more and less than 90%)	1 (Herbicidal ratio of 5% or more and less than 20%)	1 (Herbicidal ratio of 5% or more and less than 20%)	1 (Herbicidal ratio of 5% or more and less than 20%)	3 (Herbicidal ratio of 40% or more and less than 70%)	3 (Herbicidal ratio of 40% or more and less than 70%)	K (Lolium multiflorum Lam.) herbicidal effect (Lolium multiflorum Lam.): 1 (Herbicidal ratio of 5% or more and less than 20%); O (Chenopodium album) herbicidal effect (Chenopodium album): 5 (Herbicidal ratio of 90% or more (almost completely withered)); N (Amaranthus retroflexus) herbicidal effect (Amaranthus retroflexus): 3 (Herbicidal ratio of 40% or more and less than 70%); F (Digitaria ciliaris) herbicidal effect (Digitaria ciliaris): 3 (Herbicidal ratio of 40% or more and less than 70%)
Cc1nnc(NC(=O)c2ccc(C(F)(F)F)n3c(-c4ccc(C(F)(F)F)cc4)nnc23)o1 [1-045]		1 (Herbicidal ratio of 5% or more and less than 20%)	3 (Herbicidal ratio of 40% or more and less than 70%)	4 (Herbicidal ratio of 70% or more and less than 90%)	0 (Herbicidal ratio of 5% or less (almost no effect))	3 (Herbicidal ratio of 40% or more and less than 70%)	0 (Herbicidal ratio of 5% or less (almost no effect))	1 (Herbicidal ratio of 5% or more and less than 20%)	0 (Herbicidal ratio of 5% or less (almost no effect))	0 (Herbicidal ratio of 5% or less (almost no effect))	3 (Herbicidal ratio of 40% or more and less than 70%)	0 (Herbicidal ratio of 5% or less (almost no effect))	2 (Herbicidal ratio of 20% or more and less than 40%)	0 (Herbicidal ratio of 5% or less (almost no effect))	2 (Herbicidal ratio of 20% or more and less than 40%)	1 (Herbicidal ratio of 5% or more and less than 20%)	0 (Herbicidal ratio of 5% or less (almost no effect))	2 (Herbicidal ratio of 20% or more and less than 40%)	4 (Herbicidal ratio of 70% or more and less than 90%)	3 (Herbicidal ratio of 40% or more and less than 70%)	K (Lolium multiflorum Lam.) herbicidal effect (Lolium multiflorum Lam.): 0 (Herbicidal ratio of 5% or less (almost no effect)); O (Chenopodium album) herbicidal effect (Chenopodium album): 5 (Herbicidal ratio of 90% or more (almost completely withered)); N (Amaranthus retroflexus) herbicidal effect (Amaranthus retroflexus): 4 (Herbicidal ratio of 70% or more and less than 90%); F (Digitaria ciliaris) herbicidal effect (Digitaria ciliaris): 3 (Herbicidal ratio of 40% or more and less than 70%)
Cc1nonc1NC(=O)c1ccc(C(F)(F)F)n2c(C(C)C)nnc12 [3-001, 3-Isopropyl-N-(4-methyl-1,2,5-oxadiazol-3-yl)-5-(trifluoromethyl)-[1,2,4]triazolo[4,3-a]pyridine-8-carboxamide]	185 to 186 °C																				
Cc1nnc(NC(=O)c2ccc(C(F)(F)F)n3c(CS(=O)(=O)CC(F)(F)F)nnc23)o1 [1-039]		3 (Herbicidal ratio of 40% or more and less than 70%)	3 (Herbicidal ratio of 40% or more and less than 70%)	3 (Herbicidal ratio of 40% or more and less than 70%)	2 (Herbicidal ratio of 20% or more and less than 40%)	0 (Herbicidal ratio of 5% or less (almost no effect))	0 (Herbicidal ratio of 5% or less (almost no effect))	0 (Herbicidal ratio of 5% or less (almost no effect))	0 (Herbicidal ratio of 5% or less (almost no effect))	0 (Herbicidal ratio of 5% or less (almost no effect))	2 (Herbicidal ratio of 20% or more and less than 40%)	0 (Herbicidal ratio of 5% or less (almost no effect))	0 (Herbicidal ratio of 5% or less (almost no effect))	0 (Herbicidal ratio of 5% or less (almost no effect))	4 (Herbicidal ratio of 70% or more and less than 90%)	0 (Herbicidal ratio of 5% or less (almost no effect))	0 (Herbicidal ratio of 5% or less (almost no effect))	0 (Herbicidal ratio of 5% or less (almost no effect))	0 (Herbicidal ratio of 5% or less (almost no effect))	0 (Herbicidal ratio of 5% or less (almost no effect))	K (Lolium multiflorum Lam.) herbicidal effect (Lolium multiflorum Lam.): 0 (Herbicidal ratio of 5% or less (almost no effect)); O (Chenopodium album) herbicidal effect (Chenopodium album): 4 (Herbicidal ratio of 70% or more and less than 90%); N (Amaranthus retroflexus) herbicidal effect (Amaranthus retroflexus): 1 (Herbicidal ratio of 5% or more and less than 20%); F (Digitaria ciliaris) herbicidal effect (Digitaria ciliaris): 2 (Herbicidal ratio of 20% or more and less than 40%)
